From patent US6054441A, “Oxypurine nucleosides and their congeners, and acyl derivatives thereof, for improvement of hematopoiesis” (priority 1995, dated 2000) come the findings set out here.

The test system of test [1] is hematopoietic recovery after cyclophosphamide. In words: Hematopoietic recovery after cyclophosphamide (Example 59). Format: in vivo, Balb/C mice. The conditions noted are these: days 5 and 7; 25 mg/kg/day i.p. On the procedure:
Cyclophosphamide (CP) (275 mg/kg, i.p.) was administered to 28 Balb/C female mice weighing approximately 20 grams each. Twenty-four hours later and each day for 4 days thereafter, mice were given a 0.4 ml i.p. injection of either physiological saline (controls) or palmitoyl-8-aminoguanosine (25 mg/kg/day in 0.2% Tween 80). On days 5 and 7 following CP administration 7 animals from each of the 2 groups were bled and then were sacrificed by cervical dislocation. Spleens were removed and weighed, and complete blood cell counts performed.

Test [2] has as its system hematopoiesis in normal mice. Kind of test: Hematopoiesis in normal mice (Example 56). Format: in vivo, Balb/C mice. The conditions noted are these: day 5, 2.6 μmoles/mouse, 4 days. On the procedure: Normal Balb/C female mice weighing approximately 20 grams each were given a daily 0.4 ml i.p. injection of either physiological saline (controls), palmitoylguanosine (2.6 μmoles/mouse), palmitoyldeoxyguanosine (2.6 μmoles/mouse), monopalmitoylguanosine 2',3'-acyclic dialcohol (2.6 μmoles/mouse), and palmitoyl-8-bromoguanosine (2.6 μmoles/mouse) for 4 days. On the fifth day all 3 animals in each of the 5 groups were bled and then sacrificed by cervical dislocation. Spleens were removed and weighed, and complete blood cell counts performed. Femoral bone marrow from each mouse was collected and a differential cell count performed on marrow smears.

In test [3] the test system is hematopoietic recovery after cyclophosphamide. In words: Dose-response, hematopoietic recovery after cyclophosphamide (Example 52). Format: in vivo, Balb/C mice. The conditions noted are these: days 5 and 7; 0.2-2.0 μmoles/mouse, except 0.2 on day 5. The procedure: (§1) Cyclophosphamide (CP) (275 mg/kg, i.p.) was administered to 85 Balb/C female mice weighing approximately 20 grams each. Twenty-four hours later and each day thereafter mice were given a 0.4 ml i.p. injection of either physiological saline (controls), or palmitoyldeoxyguanosine at one of four different doses: 0.2, 0.4, 1.0 or 2.0 μmoles/mouse). On days 5 and 7 following CP administration 9 and 8 animals, respectively, in each of the 5 groups were bled and then sacrificed by cervical dislocation. Spleens were removed and weighed, and complete blood cell counts performed.

The test system is the same in test [4]. Kind of test: Dose-response, hematopoietic recovery after cyclophosphamide (Example 54). The format is in vivo, Balb/C mice. The procedure:
Cyclophosphamide (CP) (275 mg/kg, i.p.) was administered to 112 Balb/C female mice weighing approximately 20 grams each. Twenty-four hours later and each day thereafter mice were given a 0.4 ml i.p. injection of either physiological saline (controls), or palmitoyldeoxyguanosine at one of six different doses: 0.04, 0.08, 0.2, 0.4, 0.6 or 0.8 μmoles/mouse. On days 5 and 7 following CP administration 8 animals from each of the 7 groups were bled and then sacrificed by cervical dislocation. Spleens were removed and weighed, and complete blood cell counts performed.

Test [5] shares this test system. In words: Hematopoietic recovery after cyclophosphamide (Example 51). The format is in vivo, Balb/C mice. The conditions noted are these: day 5; 2 μmoles/mouse. The procedure:
Cyclophosphamide (CP) (275 mg/kg, i.p.) was administered to 88 Balb/C female mice weighing approximately 20 grams each. Twenty-four hours later and each day thereafter mice were given a 0.4 ml i.p. injection of either Tween-80 (0.2%) (controls), 3'-O-palmitoyldeoxyguanosine (2 μmoles/mouse), butyryldeoxyguanosine (2 μmoles/mouse), palmitoyl-N-isobutyryldeoxyguanosine (2 μmoles/mouse), lauryldeoxyguanosine (2 μmoles/mouse), octanoyldeoxyguanosine (2 μmoles/mouse), and palmitoyldeoxyguanosine (2 μmoles/mouse). On days 5 and 7 following CP administration 6 or 7 animals in each of the 7 groups were bled and then sacrificed by cervical dislocation. Spleens were removed and weighed, and complete blood cell counts performed.

Test [6] has the same test system. Kind of test: Comparative dose-response, hematopoietic recovery after cyclophosphamide (Example 53). Format: in vivo, Balb/C mice. On the procedure:
as §1, with “to 96” for “to 85”, “(controls), palmitoylguanosine” for “(controls), or palmitoyldeoxyguanosine”, “2.0 μmoles/mouse), or palmitoyldeoxyguanosine at a dose of 1.0 μmoles/mouse.” for “2.0 μmoles/mouse).”, “administration” for “administration 9 and”, “8 animals from” for “8 animals, respectively, in”, “the 6” for “the 5”

For test [7] the test system is unchanged. Kind of test: Recovery of blood cell counts in rats after cyclophosphamide (Example 55). Format: in vivo, F344 rats. On the procedure: Cyclophosphamide (CP) (40 mg/kg, i.p.) was administered to 16 F344 male rats weighing approximately 200 grams each. Twenty-four hours later and each day thereafter rats were given a 0.5 ml i.p. injection of either physiological saline (controls), or palmitoyldeoxyguanosine at a dose of […]. On days 5, 7 and 10 following CP administration all 8 animals from both groups were bled and complete blood cell counts performed. On day 10 all of the rats were sacrificed and their spleens removed and weighed.

The test system of test [8] is hematopoietic recovery from fluorouracil. In words: Pretreatment, hematopoietic recovery from fluorouracil (Example 57). Format: in vivo, Balb/C mice. On the procedure: Twenty-eight female Balb/C mice weighing approximately 20 grams each received a 0.4 ml i.p. injection of either physiological saline (controls), or palmitoyldeoxyguanosine (1 μmole/mouse) daily for three days. On the fourth day 5-flourouracil (5-FU) (150 mg/kg, i.p.) was administered to all 28 of the animals. On days 5, 8 and 11 following 5-FU administration 4 (day 5) or 5 (days 8 and 11) animals from both groups were bled and then sacrificed by cervical dislocation. Spleens were removed and weighed, and complete blood cell counts performed.

In test [9] the test system is Interleukin-3 dependent bone marrow cells. The conditions noted are these: 10 micrograms per milliliter.
Procedure: Bone marrow cells were obtained by flushing the femurs of three male B6D2F1 mice. The cells were plated at 5.0×10^5 /ml in MEM plus 10% fetal calf serum and 25 Units/ml of recombinant IL-3 for 24-48 hours. Non-adherent cells were then separated from adherent cells and maintained for an additional twelve days. IL-3 was washed from cells, and cells were plated in MEM plus 10% fetal calf serum in the presence or absence of IL-3 and with or without the addition of palmitoyldeoxyguanosine (10 micrograms per milliliter) or deoxyguanosine (10 micrograms per milliliter). Cells were counted using the trypan blue exclusion method, and the percent of dead cells (trypan blue positive) was determined at 24, 40, 60 and 84 hours following the wash.
In test [10] the test system is hematopoietic recovery after cyclophosphamide. In words: Surfactants, hematopoietic recovery after cyclophosphamide (Example 58). To be noted: day 7. Format: in vivo, Balb/C mice. The procedure:
Twenty-four hours later and each day thereafter for a total of 6 days, mice were divided into seven groups and given a 0.4 ml i.p. injection of either physiological saline (controls), Tween 80 at each of three concentrations (0.02%, 0.2% and 1%) or octanoylguanosine (50 mg/kg/dose) in three different concentrations of Tween 80 (0.02%, 0.2% and 1%). On day 7 following CP administration all 9 animals from each of the […] were bled and then sacrificed by cervical dislocation. Spleens were removed and weighed, and complete blood cell counts performed.

Test [11] has the same test system. In words: Histological examination of spleens and blood counts after cyclophosphamide (Example 46). The conditions noted are these: day 7. The format is in vivo, Balb/C mice. On the procedure: Cyclophosphamide (CP) (275 mg/kg, i.p.) was administered to 30 Balb/C female mice weighing approximately 20 grams each. Twenty-four hours later and each day thereafter for a total of 6 days, mice were given a 0.4 ml i.p. injection of either physiological saline (controls), Tween 80 (0.5%), or octanoylguanosine (5.0 μmoles/mouse/day in 0.5% Tween 80). On day 7 following CP administration all 10 animals from each of the 3 groups were bled and then sacrificed by cervical dislocation. Spleens were removed, weighed, and fixed in 10% formalin for later histological examination. Complete blood cell counts were performed on the collected blood.

The test system is the same in test [12]. In words: Dose-response, hematopoietic recovery after cyclophosphamide (Example 45). The format is in vivo, Balb/C mice. On the procedure:
Cyclophosphamide (CP) (275 mg/kg, i.p.) was administered to 45 Balb/C female mice weighing approximately 20 grams each. Twenty-four hours later and each day thereafter for a total of 6 days, mice were given a 0.4 ml i.p. injection of either physiological saline (controls), Tween 80 (0.5%), or one of three different doses of octanoylguanosine ([…]). On day 7 following CP administration all 9 animals from each of the […] were bled and then sacrificed by cervical dislocation. Spleens were removed and weighed, and complete blood cell counts performed.

Test [13] has the same test system. Kind of test: Hematopoietic recovery after cyclophosphamide, acyl chain length (Example 38). The format is in vivo, Balb/C mice. To be noted: day 7; guanosine 5, acyl derivatives 2.5 μmoles/mouse/day i.p. The procedure: Cyclophosphamide (CP) (275 mg/kg, i.p.) was administered to 70 Balb/C female mice weighing approximately 20 grams each. Twenty-four hours later and each day thereafter for a total of 6 days, mice were given a 0.4 ml i.p injection of either physiological saline (controls), Tween 80 (0.2%), guanosine (5 μmoles/mouse/day in 0.2% Tween 80), or 2.5 μmoles per mouse per day of one of the following acylated derivatives of guanosine in 0.2% Tween 80: triacetylguanosine, octanoylguanosine, lauroylguanosine, or palmitoylguanosine. On day 7 following CP administration all 10 animals from each of the 7 groups were bled, and then sacrificed by cervical dislocation. Spleens were removed and weighed, and complete blood counts performed.

Setting [14] is: day 5, palmitoylguanosine 2.0, palmitoyldeoxyguanosine 1.0 μmoles/mouse.
Setting [15] is: day 7, palmitoylguanosine 1.0 and 2.0, palmitoyldeoxyguanosine 1.0 μmoles/mouse.

`CCCCCCCCCCCCCCCC(=O)OC[C@H]1O[C@@H](n2c(N)nc3c(=O)[nH]c(N)nc32)[C@H](O)[C@@H]1O` [palmitoyl-8-aminoguanosine]: in test [1], the Neutrophils result is “significantly elevated” and the spleen weight entry is “significantly elevated”.
For the molecule `CCCCCCCCCCCCCCCC(=O)OC[C@H]1O[C@@H](n2cnc3c(=O)[nH]c(N)nc32)C[C@@H]1O` [palmitoyldeoxyguanosine], the spleen weight result in [2] is “significantly elevated”; in test [3] it was “significantly elevated”; in test [4] (day 5, 0.2 μmoles/mouse or greater), “significantly elevated”; in test [4] (day 7, all doses except 0.04 μmoles/mouse), “significantly elevated”; in [5] it was “significantly elevated”; in test [6] (setting [14]) it was “significantly elevated”. The spleen weight entry in test [6] (setting [15]) was “significantly elevated”; in test [7] (day 10, i.p.), “significantly elevated”; in [8] (day 8), “significantly higher”. Moreover, the number of myelocytes entry in [2] (femoral bone marrow) is “significantly greater”. Besides, the total neutrophil counts entry in test [3] is “significantly elevated”; in [4] (days 5 and 7, all 6 doses), “significantly elevated”; in test [5], “significantly elevated”; in test [6] (setting [14]), “significantly elevated”; in test [6] (setting [15]), “significantly elevated”; in [7] (days 5, 7 and 10, i.p.) it was “significantly elevated”. Also, the total neutrophil counts result in [8] (day 8) and in test [8] (day 11) was “significantly higher” throughout. The “white blood cell counts” value in [3] is reported as “significantly elevated”; in test [4] (day 5, 0.4 μmoles/mouse or greater), “significantly elevated”; in test [4] (day 7, all doses), “statistically significant differences were seen at all doses”; in [5], “significantly elevated”; in test [6] (setting [14]) it was “significantly elevated”; in [6] (setting [15]) it was “significantly elevated”. The “white blood cell counts” value in [7] (days 5, 7 and 10, i.p.) is “significantly elevated”. In addition, in [6] (vs palmitoylguanosine), the “relative potency in elevating spleen weight and cell counts” value is listed as “more potent in elevating these parameters than the same or even a 2-fold greater dose of palmitoylguanosine”. The Lymphocytes result in test [7] (day 10, i.p.) was “significantly elevated”. For the same molecule, the Platelets entry in [7] (day 10, i.p.) is listed as “significantly elevated”. The platelet counts result was “significantly elevated” in [8] (day 5, 1 μmole/mouse, 3 days before 5-FU); “significantly higher” in [8] (day 8); “significantly higher” in test [8] (day 11). For the same molecule, the lymphocyte counts result in test [8] (day 11) is recorded as “significantly higher”. Also, the spleen weights result in test [8] (day 11) is “significantly higher”. Moreover, the “total white blood cell counts” value in test [8] (day 11) was “significantly higher”. In addition, the “prevention of apoptotic cell death due to IL-3 deprivation” value in [9] is “significantly reduced the percentage of dead cells”.
Consider `CCCCCCCC(=O)OC[C@H]1O[C@@H](n2cnc3c(=O)[nH]c(N)nc32)[C@H](O)[C@@H]1O`, for which the neutrophil counts entry in test [10] (50 mg/kg in 0.02% and 0.2% Tween 80, vs saline) is “significantly different from controls”; in test [10] (50 mg/kg in 0.2% vs in 0.02% Tween 80), “significantly higher”. The spleen weight result in test [11] (Tween 80 0.5%, octanoylguanosine 5.0 μmoles/mouse/day) is given as “significantly greater”; in [12] (day 7, 0.5, 2.5 or 5 μmoles/mouse/day, vs controls and Tween 80), “significantly larger spleens”; in test [13], “significantly larger spleens”. The Neutrophils result in test [11] (vs control or Tween 80) was “significantly greater numbers”. In addition, the “peripheral white blood cells (WBC)” value in test [11] (vs control or Tween 80) is listed as “significantly greater numbers”. Also, the “histological examination of spleens” value in test [11] (vs saline and Tween 80) is “much greater lymphopoiesis (increased white pulp) and myelopoiesis (increased red pulp)”. In addition, the spleen size entry in test [12] (day 7, highest dose (10 μmoles)) is reported as “largest spleens”. Also, the “total number of leukocytes” value in [12] (day 7, vs control) is “significantly increased above control values in a dose-dependent manner”. Moreover, the “total number of neutrophils” value in test [12] (day 7, vs control) was “significantly increased above control values in a dose-dependent manner”. Further, the “accelerating regeneration of hematopoiesis” value in test [12] (middle dose 2.5 μmoles) is listed as “nearly as effective as the highest dose”.
